Data: PubChem BioAssay (NCI)
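Exposure lasted 48 hours, with cells grown in 96-well plates and compounds tested at five concentrations. TGI marks complete inhibition of growth.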

Tested on: A498 renal
Assay: NCI tumour cell line growth inhibition, 48 h

SMILES	TGI [µM]
CN[C@@H](C)[C@@H](NC)c1ccccc1	> 100
O=C1OCC2C1C1c3ccccc3C(O)c3ccccc3C21 (stereo unspecified)	> 100
CC(C)N(CCn1c2c3ccccc3ccc2c2oc(=O)c3ccccc3c21)C(C)C	> 100

Tested on: M19-MEL melanoma
Assay: NCI tumour cell line growth inhibition, 48 h

SMILES	TGI [µM]
Cc1c(/C=N/NC(=O)c2ccc(Cl)cc2)c(=O)n(-c2ccccc2)n1C	> 100
CN[C@@H](C)[C@@H](NC)c1ccccc1	> 100
O=C1OCC2C1C1c3ccccc3C(O)c3ccccc3C21 (stereo unspecified)	> 100
CC(C)N(CCn1c2c3ccccc3ccc2c2oc(=O)c3ccccc3c21)C(C)C	> 100

Tested on: HCC-2998 colon
Assay: NCI tumour cell line growth inhibition, 48 h

SMILES	TGI [µM]
Cc1c(/C=N/NC(=O)c2ccc(Cl)cc2)c(=O)n(-c2ccccc2)n1C	> 100
CN[C@@H](C)[C@@H](NC)c1ccccc1	> 100
O=C1OCC2C1C1c3ccccc3C(O)c3ccccc3C21 (stereo unspecified)	> 100

Tested on: SF-268 CNS
Assay: NCI tumour cell line growth inhibition, 48 h

SMILES	TGI [µM]
Cc1c(/C=N/NC(=O)c2ccc(Cl)cc2)c(=O)n(-c2ccccc2)n1C	> 100
O=C1OCC2C1C1c3ccccc3C(O)c3ccccc3C21 (stereo unspecified)	> 100
CC(C)N(CCn1c2c3ccccc3ccc2c2oc(=O)c3ccccc3c21)C(C)C	> 100

Tested on: U251 CNS
Assay: NCI tumour cell line growth inhibition, 48 h

SMILES	TGI [µM]
Cc1c(/C=N/NC(=O)c2ccc(Cl)cc2)c(=O)n(-c2ccccc2)n1C	> 100
CN[C@@H](C)[C@@H](NC)c1ccccc1	2.9
O=C1OCC2C1C1c3ccccc3C(O)c3ccccc3C21 (stereo unspecified)	> 100
CC(C)N(CCn1c2c3ccccc3ccc2c2oc(=O)c3ccccc3c21)C(C)C	> 100

Tested on: OVCAR-8 ovarian
Assay: NCI tumour cell line growth inhibition, 48 h

SMILES	TGI [µM]
Cc1c(/C=N/NC(=O)c2ccc(Cl)cc2)c(=O)n(-c2ccccc2)n1C	> 100
CN[C@@H](C)[C@@H](NC)c1ccccc1	> 100
O=C1OCC2C1C1c3ccccc3C(O)c3ccccc3C21 (stereo unspecified)	> 100
CC(C)N(CCn1c2c3ccccc3ccc2c2oc(=O)c3ccccc3c21)C(C)C	> 100

Tested on: SNB-78 CNS
Assay: NCI tumour cell line growth inhibition, 48 h

SMILES	TGI [µM]
Cc1c(/C=N/NC(=O)c2ccc(Cl)cc2)c(=O)n(-c2ccccc2)n1C	> 100
CN[C@@H](C)[C@@H](NC)c1ccccc1	> 100
O=C1OCC2C1C1c3ccccc3C(O)c3ccccc3C21 (stereo unspecified)	> 100
CC(C)N(CCn1c2c3ccccc3ccc2c2oc(=O)c3ccccc3c21)C(C)C	> 100

Tested on: M14 melanoma
Assay: NCI tumour cell line growth inhibition, 48 h

SMILES	TGI [µM]
Cc1c(/C=N/NC(=O)c2ccc(Cl)cc2)c(=O)n(-c2ccccc2)n1C	> 100
CN[C@@H](C)[C@@H](NC)c1ccccc1	> 100
O=C1OCC2C1C1c3ccccc3C(O)c3ccccc3C21 (stereo unspecified)	> 100
CC(C)N(CCn1c2c3ccccc3ccc2c2oc(=O)c3ccccc3c21)C(C)C	> 100

Tested on: OVCAR-5 ovarian
Assay: NCI tumour cell line growth inhibition, 48 h

SMILES	TGI [µM]
O=C1OCC2C1C1c3ccccc3C(O)c3ccccc3C21 (stereo unspecified)	> 100
CC(C)N(CCn1c2c3ccccc3ccc2c2oc(=O)c3ccccc3c21)C(C)C	> 100

Tested on: ACHN renal
Assay: NCI tumour cell line growth inhibition, 48 h

SMILES	TGI [µM]
Cc1c(/C=N/NC(=O)c2ccc(Cl)cc2)c(=O)n(-c2ccccc2)n1C	> 100
CN[C@@H](C)[C@@H](NC)c1ccccc1	> 100
O=C1OCC2C1C1c3ccccc3C(O)c3ccccc3C21 (stereo unspecified)	> 100
CC(C)N(CCn1c2c3ccccc3ccc2c2oc(=O)c3ccccc3c21)C(C)C	> 100

Tested on: UACC-62 melanoma
Assay: NCI tumour cell line growth inhibition, 48 h

SMILES	TGI [µM]
Cc1c(/C=N/NC(=O)c2ccc(Cl)cc2)c(=O)n(-c2ccccc2)n1C	> 100
CN[C@@H](C)[C@@H](NC)c1ccccc1	> 100
O=C1OCC2C1C1c3ccccc3C(O)c3ccccc3C21 (stereo unspecified)	> 100
CC(C)N(CCn1c2c3ccccc3ccc2c2oc(=O)c3ccccc3c21)C(C)C	> 100

Tested on: KM20L2 colon
Assay: NCI tumour cell line growth inhibition, 48 h

SMILES	TGI [µM]
Cc1c(/C=N/NC(=O)c2ccc(Cl)cc2)c(=O)n(-c2ccccc2)n1C	> 100
O=C1OCC2C1C1c3ccccc3C(O)c3ccccc3C21 (stereo unspecified)	> 100
CC(C)N(CCn1c2c3ccccc3ccc2c2oc(=O)c3ccccc3c21)C(C)C	> 100

Tested on: HL-60(TB) leukemia
Assay: NCI tumour cell line growth inhibition, 48 h

SMILES	TGI [µM]
Cc1c(/C=N/NC(=O)c2ccc(Cl)cc2)c(=O)n(-c2ccccc2)n1C	> 100
O=C1OCC2C1C1c3ccccc3C(O)c3ccccc3C21 (stereo unspecified)	> 100
CC(C)N(CCn1c2c3ccccc3ccc2c2oc(=O)c3ccccc3c21)C(C)C	> 100

Tested on: SW-620 colon
Assay: NCI tumour cell line growth inhibition, 48 h

SMILES	TGI [µM]
Cc1c(/C=N/NC(=O)c2ccc(Cl)cc2)c(=O)n(-c2ccccc2)n1C	> 100
CN[C@@H](C)[C@@H](NC)c1ccccc1	> 100
O=C1OCC2C1C1c3ccccc3C(O)c3ccccc3C21 (stereo unspecified)	> 100
CC(C)N(CCn1c2c3ccccc3ccc2c2oc(=O)c3ccccc3c21)C(C)C	> 100

Tested on: NCI-H226 lung
Assay: NCI tumour cell line growth inhibition, 48 h

SMILES	TGI [µM]
Cc1c(/C=N/NC(=O)c2ccc(Cl)cc2)c(=O)n(-c2ccccc2)n1C	> 100
CN[C@@H](C)[C@@H](NC)c1ccccc1	> 100
O=C1OCC2C1C1c3ccccc3C(O)c3ccccc3C21 (stereo unspecified)	> 100
CC(C)N(CCn1c2c3ccccc3ccc2c2oc(=O)c3ccccc3c21)C(C)C	> 100

Tested on: DLD-1 colon
Assay: NCI tumour cell line growth inhibition, 48 h

SMILES	TGI [µM]
Cc1c(/C=N/NC(=O)c2ccc(Cl)cc2)c(=O)n(-c2ccccc2)n1C	> 100
CN[C@@H](C)[C@@H](NC)c1ccccc1	> 100
O=C1OCC2C1C1c3ccccc3C(O)c3ccccc3C21 (stereo unspecified)	> 100
CC(C)N(CCn1c2c3ccccc3ccc2c2oc(=O)c3ccccc3c21)C(C)C	> 100

Tested on: SR leukemia
Assay: NCI tumour cell line growth inhibition, 48 h

SMILES	TGI [µM]
Cc1c(/C=N/NC(=O)c2ccc(Cl)cc2)c(=O)n(-c2ccccc2)n1C	> 100
O=C1OCC2C1C1c3ccccc3C(O)c3ccccc3C21 (stereo unspecified)	> 100
CC(C)N(CCn1c2c3ccccc3ccc2c2oc(=O)c3ccccc3c21)C(C)C	> 100

Tested on: HT29 colon
Assay: NCI tumour cell line growth inhibition, 48 h

SMILES	TGI [µM]
Cc1c(/C=N/NC(=O)c2ccc(Cl)cc2)c(=O)n(-c2ccccc2)n1C	> 100
CN[C@@H](C)[C@@H](NC)c1ccccc1	> 100
O=C1OCC2C1C1c3ccccc3C(O)c3ccccc3C21 (stereo unspecified)	> 100
CC(C)N(CCn1c2c3ccccc3ccc2c2oc(=O)c3ccccc3c21)C(C)C	> 100

Tested on: A549 NSCLC
Assay: NCI tumour cell line growth inhibition, 48 h

SMILES	TGI [µM]
Cc1c(/C=N/NC(=O)c2ccc(Cl)cc2)c(=O)n(-c2ccccc2)n1C	> 100
CN[C@@H](C)[C@@H](NC)c1ccccc1	> 100
O=C1OCC2C1C1c3ccccc3C(O)c3ccccc3C21 (stereo unspecified)	> 100
CC(C)N(CCn1c2c3ccccc3ccc2c2oc(=O)c3ccccc3c21)C(C)C	> 100

Tested on: SN12C renal
Assay: NCI tumour cell line growth inhibition, 48 h

SMILES	TGI [µM]
Cc1c(/C=N/NC(=O)c2ccc(Cl)cc2)c(=O)n(-c2ccccc2)n1C	> 100
CN[C@@H](C)[C@@H](NC)c1ccccc1	> 100
O=C1OCC2C1C1c3ccccc3C(O)c3ccccc3C21 (stereo unspecified)	> 100
CC(C)N(CCn1c2c3ccccc3ccc2c2oc(=O)c3ccccc3c21)C(C)C	> 100

Tested on: HOP-18 NSCLC
Assay: NCI tumour cell line growth inhibition, 48 h

SMILES	TGI [µM]
Cc1c(/C=N/NC(=O)c2ccc(Cl)cc2)c(=O)n(-c2ccccc2)n1C	> 100
CN[C@@H](C)[C@@H](NC)c1ccccc1	> 100
O=C1OCC2C1C1c3ccccc3C(O)c3ccccc3C21 (stereo unspecified)	> 100
CC(C)N(CCn1c2c3ccccc3ccc2c2oc(=O)c3ccccc3c21)C(C)C	> 86.6

Tested on: SK-MEL-28 melanoma
Assay: NCI tumour cell line growth inhibition, 48 h

SMILES	TGI [µM]
Cc1c(/C=N/NC(=O)c2ccc(Cl)cc2)c(=O)n(-c2ccccc2)n1C	> 100
CN[C@@H](C)[C@@H](NC)c1ccccc1	> 100
O=C1OCC2C1C1c3ccccc3C(O)c3ccccc3C21 (stereo unspecified)	> 100
CC(C)N(CCn1c2c3ccccc3ccc2c2oc(=O)c3ccccc3c21)C(C)C	> 100

Tested on: CCRF-CEM leukemia
Assay: NCI tumour cell line growth inhibition, 48 h

SMILES	TGI [µM]
Cc1c(/C=N/NC(=O)c2ccc(Cl)cc2)c(=O)n(-c2ccccc2)n1C	> 100
CN[C@@H](C)[C@@H](NC)c1ccccc1	> 100
O=C1OCC2C1C1c3ccccc3C(O)c3ccccc3C21 (stereo unspecified)	> 100
CC(C)N(CCn1c2c3ccccc3ccc2c2oc(=O)c3ccccc3c21)C(C)C	> 100

Tested on: NCI-H522 lung
Assay: NCI tumour cell line growth inhibition, 48 h

SMILES	TGI [µM]
Cc1c(/C=N/NC(=O)c2ccc(Cl)cc2)c(=O)n(-c2ccccc2)n1C	> 100
CN[C@@H](C)[C@@H](NC)c1ccccc1	> 100
CC(C)N(CCn1c2c3ccccc3ccc2c2oc(=O)c3ccccc3c21)C(C)C	> 100

Tested on: LOX IMVI melanoma
Assay: NCI tumour cell line growth inhibition, 48 h

SMILES	TGI [µM]
Cc1c(/C=N/NC(=O)c2ccc(Cl)cc2)c(=O)n(-c2ccccc2)n1C	> 100
CN[C@@H](C)[C@@H](NC)c1ccccc1	> 100
O=C1OCC2C1C1c3ccccc3C(O)c3ccccc3C21 (stereo unspecified)	> 100
CC(C)N(CCn1c2c3ccccc3ccc2c2oc(=O)c3ccccc3c21)C(C)C	> 100

Tested on: DMS 114 small cell lung
Assay: NCI tumour cell line growth inhibition, 48 h

SMILES	TGI [µM]
Cc1c(/C=N/NC(=O)c2ccc(Cl)cc2)c(=O)n(-c2ccccc2)n1C	> 100
CN[C@@H](C)[C@@H](NC)c1ccccc1	> 100
O=C1OCC2C1C1c3ccccc3C(O)c3ccccc3C21 (stereo unspecified)	> 100
CC(C)N(CCn1c2c3ccccc3ccc2c2oc(=O)c3ccccc3c21)C(C)C	> 100

Tested on: TK-10 renal
Assay: NCI tumour cell line growth inhibition, 48 h

SMILES	TGI [µM]
Cc1c(/C=N/NC(=O)c2ccc(Cl)cc2)c(=O)n(-c2ccccc2)n1C	> 100
CN[C@@H](C)[C@@H](NC)c1ccccc1	> 100
O=C1OCC2C1C1c3ccccc3C(O)c3ccccc3C21 (stereo unspecified)	> 100
CC(C)N(CCn1c2c3ccccc3ccc2c2oc(=O)c3ccccc3c21)C(C)C	> 100

Tested on: SNB-19 CNS
Assay: NCI tumour cell line growth inhibition, 48 h

SMILES	TGI [µM]
Cc1c(/C=N/NC(=O)c2ccc(Cl)cc2)c(=O)n(-c2ccccc2)n1C	> 100
CC(C)N(CCn1c2c3ccccc3ccc2c2oc(=O)c3ccccc3c21)C(C)C	> 100

Tested on: HOP-62 NSCLC
Assay: NCI tumour cell line growth inhibition, 48 h

SMILES	TGI [µM]
Cc1c(/C=N/NC(=O)c2ccc(Cl)cc2)c(=O)n(-c2ccccc2)n1C	> 100
O=C1OCC2C1C1c3ccccc3C(O)c3ccccc3C21 (stereo unspecified)	> 100
CC(C)N(CCn1c2c3ccccc3ccc2c2oc(=O)c3ccccc3c21)C(C)C	98.7

Tested on: RXF 393 renal
Assay: NCI tumour cell line growth inhibition, 48 h

SMILES	TGI [µM]
Cc1c(/C=N/NC(=O)c2ccc(Cl)cc2)c(=O)n(-c2ccccc2)n1C	> 100
CN[C@@H](C)[C@@H](NC)c1ccccc1	> 100
